Source: PMC2110886 (PLoS ONE, 2007)
“Also recorded” adds a separate entry of the source. Where two headings read alike, the source gives them in different places.

Experiments:
[1] = design: method as in Symmetrel package insert; settings: ref Symmetrel package insert, cited from earlier work
[2] = Steady-state plasma pharmacokinetics, open-label randomized three-way crossover study, drugs alone or in combination; settings: for Tmax / half-life / AUC(0-t) / Cmax: human, in vivo; for effect of amantadine coadministration on PK (in words): oseltamivir 75 mg BID + amantadine 100 mg BID
[3] = cited from earlier work; for mean Cmax: twice daily oral dosing with 75 mg oseltamivir capsule; for mean Cmax / AUC0-12: ref Oseltamivir package insert; for AUC0-12: values reported earlier, 75 mg oseltamivir twice daily
cytochrome P450 isoforms = tested on: cytochrome P450 isoforms; design: method as in Tamiflu package insert; settings: ref Tamiflu package insert; cited from earlier work
[4] = tested on: recombinant amantadine sensitive A/Vietnam/1203/04 (H5N1) virus; settings: mice, lethal challenge, equivalent human therapeutic doses, ref Ilyushina, in press; cited from earlier work
[5] = tested on: all strains of influenza A and B tested, including H5N1; settings: no reference given; cited from earlier work
[6] = Safety and tolerability (adverse events) in the crossover study; settings: eight adverse events in total during the trial; 17 subjects
[7] = under fasted conditions, ref Tamiflu package insert
[8] = under fed conditions, ref Tamiflu package insert
[9] = oseltamivir carboxylate, combination therapy with amantadine 100 mg BID
[10] = oseltamivir carboxylate, oseltamivir monotherapy 75 mg BID
[11] = oseltamivir, combination therapy with amantadine 100 mg BID
[12] = oseltamivir, oseltamivir monotherapy 75 mg BID

CC(=O)NC12CC3CC(CC(C3)C1)C2 [Acetylamantadine, acetylamantadine]
plasma acetylamantadine as share of the concurrent amantadine plasma concentration ([1]; 5 of 12 healthy volunteers, 200 mg dose of amantadine): up to 80% | N-acetylated metabolite in human urine, share of the administered dose [1]: 5-15% | detection of acetylamantadine in plasma ([1]; remaining seven of 12 volunteers): not detected | detection of acetylamantadine in plasma ([2]; current study, seventeen volunteers, LLOQ approximately 5.00 ng/mL): not detected

CCC(CC)O[C@@H]1C=C(C(=O)O)C[C@H](N)[C@H]1NC(C)=O [Oseltamivir carboxylate, oseltamivir carboxylate]
share of an oral dose reaching the systemic circulation as oseltamivir carboxylate ([3]; oral oseltamivir phosphate, ref Tamiflu package insert): At least 75% | mean Cmax [3]: 348 ng/mL | area under the plasma concentration time curve [3, 7]: 6218 ng·h/mL | peak plasma concentration [3, 7]: 551 ng/mL | area under the plasma concentration time curve [3, 8]: 6069 ng·h/mL | peak plasma concentration [3, 8]: 441 ng/mL | AUC0-12 [3]: 2719 ng·h/mL | substrate for, or inhibitor of, cytochrome P450 isoforms (cytochrome P450 isoforms): Neither oseltamivir nor oseltamivir carboxylate is a substrate for, or inhibitor of, cytochrome P450 isoforms; also recorded: Neither oseltamivir nor oseltamivir carboxylate is a substrate for | Tmax [2]: 3.07 h | half-life [2]: 369 min | AUC(0-t) ([2]; 75 mg): 3430 ng·h/mL | Cmax ([2]; 75 mg): 407 ng/mL | Tmax ([2]; 75 mg): 3.22 h | half-life ([2]; 75 mg): 365 min | effect of amantadine coadministration on PK (in words) [2]: did not meaningfully affect | apparent clearance, geometric mean [2, 9]: 22.3 L/h | apparent distribution volume, geometric mean [2, 9]: 197 L | apparent clearance, geometric mean [2, 10]: 21.9 L/h | apparent distribution volume, geometric mean [2, 10]: 192 L

CCOC(=O)C1=C[C@@H](OC(CC)CC)[C@H](NC(C)=O)[C@@H](N)C1 [Oseltamivir, oseltamivir, reference compound]
exposure to oseltamivir as share of the total exposure ([3]; after oral dosing, ref Tamiflu package insert): less than 5% | share of absorbed oseltamivir eliminated by conversion to oseltamivir carboxylate ([3]; ref Tamiflu package insert): > 90% | mean Cmax [3]: 65.2 ng/mL | AUC0-12 [3]: 112 ng·h/mL | substrate for, or inhibitor of, cytochrome P450 isoforms (cytochrome P450 isoforms): Neither oseltamivir nor oseltamivir carboxylate is a substrate for, or inhibitor of, cytochrome P450 isoforms; also recorded: Neither oseltamivir nor oseltamivir carboxylate is a substrate for | animals protected from mortality [4]: 20% | effectiveness (in words) [5]: effective against all strains of influenza A and B tested, including H5N1 | number of adverse events reported, all mild [6]: three | Tmax [2]: 0.85 h | half-life [2]: 110 min | AUC(0-t) ([2]; 75 mg): 161 ng·h/mL | Cmax ([2]; 75 mg): 60.2 ng/mL | Tmax ([2]; 75 mg): 0.76 h | half-life ([2]; 75 mg): 111 min | effect of amantadine coadministration on PK (in words) [2]: did not meaningfully affect | apparent clearance, geometric mean [2, 11]: 505 L/h | apparent distribution volume, geometric mean [2, 11]: 1329 L | apparent clearance, geometric mean [2, 12]: 465 L/h | apparent distribution volume, geometric mean [2, 12]: 1245 L
